Test results taken from US20250049930A1, “PROTAC MOLECULES TARGETING FOXP3 AND USES THEREOF” (CEDARS-SINAI MEDICAL CENTER, priority 2022, published 2025).
Residues, ends and D or L forms follow the SMILES beside them. *: point of attachment. X1 = O=C1CCC(N2C(=O)c3cccc(*)c3C2=O)C(=O)N1; PEG4 = NCCOCCOCCOCCOCCC(=O)O

Tested on: Tregs
Test: Treg immunosuppression co-culture assay with human PBMC (CFSE dilution, IFNγ, TNFα)
Format: cell-based
Settings: human CD4+ PBMC treated 72 hours (10 μM), co-cultured with CD4− PBMC stimulated with αCD3 and αCD28; difference to P60 significant
Method: FIGS. 7A-7C depict that PF decreases FoxP3 and the immunosuppressive function of human CD4+ cells. Human peripheral blood mononuclear cells (PBMC) were treated in vitro with PF (10 μM) or various control drugs (10 μM) for 3 days (FIG. 7A). PMA 10 ng/ml and Ionomycin 2 μg/ml were added during PF treatment to induce FoxP3 (FIG. 7A). Resulting cells were gated on CD4 and assessed for FoxP3 expression by flow cytometry. To treat Tregs, CD4+ PBMC were isolated and treated with PF or various controls for 72 hours. […] CD8 proliferation was measured using a CFSE dilution assay. To assess CD8+ effector cells, CD4 negative splenocytes were CFSE labeled and CFSE dilution was measured in CD8+ cells by flow cytometry (FIG. 7B). In the same experiment, CD8+ cells were assessed for activation by gating on CD8 and assessing IFNγ or TNFα by flow cytometry (FIG. 7C). […]
Human peripheral blood mononuclear cells (PBMC) were treated with phorbol 12-myristate 13-acetate (PMA) (10 ng/ml) and Ionomycin (2 μg/ml) to increase FoxP3 expression. […] CD8 proliferation was measured using a CFSE dilution assay. Immune activation was assessed by measuring TNFα or IFNγ in CD8+ or CD4+ T cells using flow cytometry.
P60 was designed to bind both mouse and human FoxP3. Therefore, we evaluated PF using human peripheral blood mononuclear cells (PBMC). […] Resulting cells were gated on CD4 and assessed for FoxP3 expression by flow cytometry. […]

CSCC[C@H](NC(=O)[C@H](C)NC(=O)[C@H](Cc1ccccc1)NC(=O)[C@H](Cc1ccccc1)NC(=O)[C@@H]1CCCN1C(=O)[C@H](Cc1c[nH]c2ccccc12)NC(=O)[C@H](CCSC)NC(=O)[C@H](CCCCN)NC(=O)[C@H](CCCNC(=N)N)NC(=O)[C@H](Cc1ccccc1)NC(=O)[C@H](CO)NC(=O)[C@H](CCC(N)=O)NC(=O)[C@H](Cc1ccccc1)NC(=O)[C@H](CC(=O)O)NC(=O)[C@H](CCCNC(=N)N)NC(=O)CCOCCOCCOCCOCCNc1cccc2c1C(=O)N(C1CCC(=O)NC1=O)C2=O)C(=O)O (some centres unmarked) [PF, Pomalidomide-PEG4-RDFQSFRKMWPFFAM] ({X1-PEG4}-RDFQSFRKMWPFFAM-OH)
CD8+ lymphocyte activation as measured by IFNγ or TNFα: greatest enhancement of CD8+ lymphocyte activation
CD8+ lymphocyte proliferation (CFSE dilution): highest CD8+ lymphocyte proliferation
